From a melting point compilation (Tetko et al.)
Starred links: 1 amine or outer side, 2 acyl side, 3 side chain; linkers in the order of their positions; H or OH if unused. Positions of bridges follow the written chain, without caps; N, C: chain ends. Non-standard residues stand in square brackets, D forms with d. Residues, ends and D or L forms follow the SMILES beside them. *: point of attachment. X7 = CCC(C)C(N[*:1])C(O)CC(=O)OC(C(C)C)C(O)C(C)C(=O)[*:2]; Phe(2-Me) = Cc1ccccc1C[CH](N)C(=O)O; NMeY = CN[CH](Cc1ccc(O)cc1)C(=O)O; X2 = CC(F)(F)CC(N[*:1])C(=O)[*:2]; Suc = O=C(CCC(=O)[*:2])[*:1]; NMeL = CN[CH](CC(C)C)C(=O)O; Tle = CC(C)(C)[CH](N)C(=O)O; X3 = CC(C)(C)OC(=O)CCC(=O)*; OtBu = CC(C)(C)O*

melting point	Compound
64 °C	F[Si](c1ccccc1)(c1ccccc1)c1ccccc1
85 to 86 °C	CCCCCc1ccc(OCCCCCCOc2ccc(-c3ccc4c5c(c(C(=O)OCC)cc4c3)C=CC(c3ccccc3)(c3ccc(N4CCCCC4)cc3)O5)cc2)cc1 (centres undefined)
118 to 120 °C	CCCc1nc(C(C)(C)O)c(C(=O)OC2OC(=O)c3ccccc32)n1Cc1ccc(-c2ccccc2-c2nnnn2C(c2ccccc2)(c2ccccc2)c2ccccc2)cc1 (centres undefined)
120 to 125 °C	CN=S(=O)(NC(=O)Nc1nc(OC)cc(OC)n1)c1ccccc1Br (centres undefined)
176 to 178 °C	CCc1nc(OC)c(NC(=O)N2CCN(c3cc(C)cc(C)c3)CC2)cc1C(=O)NC(C)C(=O)Nc1cc(CO)cc(Nc2c3ccccc3nc3c(C)c(C)ccc23)c1 (centres undefined)
213 to 215 °C	COC(=O)[C@H](CC(C)C)NC(=O)CNC(=O)[C@H](Cc1ccc(O)cc1)NC(=O)[C@H](CO)NC(=O)[C@H](Cc1c[nH]c2ccccc12)NC(=O)[C@H](Cc1c[nH]cn1)NC(=O)[C@@H]1CCC(=O)N1
149 to 151 °C	NC(=NO)c1ccc(Cl)cc1Cl
109 to 110 °C	CC(Br)C(=O)N=S(C)(=O)c1ccccc1 (centres undefined)
59 to 61 °C	CCCCCCCCCCCCCCCCCCOc1cc(OCCCOc2ccccc2)cc(N(CC(=O)OCc2ccccc2)CC(=O)OCc2ccccc2)c1
174 to 176 °C	COc1cc(OC)c(C=CC(c2ccc(OC)c(NC(=O)C(C)O)c2)S(=O)(=O)C(C=Cc2c(OC)cc(OC)cc2OC)c2ccc(OC)c(NC(=O)C(C)O)c2)c(OC)c1 (centres undefined)
109 °C	N=S(=O)(c1ccccc1)c1cccnc1 (centres undefined)
159 °C	CC(=O)OC1C(=O)C2(C)C(O)CC3OCC3(OC(C)=O)C2C(OC(=O)c2ccccc2)C23OC(=O)OC2C(OC(=O)C(O)C(CC(C)C)NC(=O)OC(C)(C)C)C(C)=C1C3(C)C (centres undefined)
128 to 131 °C	CS(C)(=O)=NC(=O)c1cc(Oc2ccc(C(F)(F)F)cc2Cl)ccc1Cl
65 °C	CCCCCCCCCCCCCCCC(=O)OC(CCCCCCCCCCCCCC)C(=O)N[C@H](C(=O)N[C@@H](CCC(=O)OCc1ccccc1)C(=O)OCc1ccccc1)C(C)C (some centres undefined)
93.3 °C	C=CC(=O)OCCCCCCCCCCCOc1ccc(-c2nc(-c3ccccc3)nc(-c3ccc(OCCCCCCCCCCCOC(=O)C=C)cc3O)n2)c(O)c1
245 to 247 °C	COc1cc(C(=O)O)ccc1Cc1cn(C(C)=O)c2ccc(NC(=O)CC3CCCC3)cc12
80 to 82 °C	[C-]#[N+]CC(=O)N(c1ccccc1)C(C)C
235 to 236 °C	Cc1ccccc1CC(NC(=O)C(CCC(=O)OC(C)(C)C)NC(=O)C(CC(=O)OC(C)(C)C)NC(=O)CCC(=O)OC(C)(C)C)C(=O)NC(C(=O)NC(CC(C)C)C(=O)O)C(C)(C)C (X3-D(OtBu)E(OtBu)[Phe(2-Me)][Tle]L-OH; configuration not given here)
112 to 114 °C	CCOC(=O)Cc1ccc(-c2nc(COc3ccc(COc4nn(-c5ccccc5)cc4/C=C/c4nc(N5CCN(C(=O)OC(C)(C)C)CC5)sc4C)cc3OC)c(C)o2)cc1
173 to 175 °C	CS(=O)(=O)C1CCN(Cc2ccc(COc3cccc4c3CN(C3CCC(=O)NC3=O)C4=O)cc2)CC1 (centres undefined)
119 to 120 °C	COc1cc(COc2nn(-c3ccccc3)cc2/C=C/c2nc(N3CCN(C(=O)OC(C)(C)C)CC3)sc2C)ccc1OCc1nc(-c2ccc(CC(=O)O)cc2)oc1C
77 to 79 °C	CC(C)(C1CCC(OCC(CN2C(C)(C)CC3(CC2(C)C)OCCO3)OC(=O)c2ccccc2)CC1)C1CCC(OCC(CN2C(C)(C)CC3(CC2(C)C)OCCO3)OC(=O)c2ccccc2)CC1 (centres undefined)
131 to 133 °C	Cc1ccc(N(C)c2cccs2)cc1O
135 to 136 °C	COC(=O)C(C)(C)NC(=O)Nc1ccc(Cl)cc1
100 °C	CC(=O)ON=C(N)c1ccc(CN(CCCCNC(=O)OC(C)(C)C)C(=O)CNC(=O)CN(CCc2ccccc2)S(=O)(=O)c2ccc(Cl)c(C)c2Cl)cc1
128 to 130 °C	Cc1ccccc1CC(NC(=O)C(CCC(=O)O)NC(=O)C(CC(=O)O)NC(=O)CCC(=O)O)C(=O)NC(C(=O)NC(CC(C)C)C(=O)NC(C=O)CC(C)(F)F)C(C)(C)C (centres undefined) (Suc-DE[Phe(2-Me)][Tle]L[X2]-aldehyde; configuration not given here)
137 to 139 °C	O=C(O)CCC(Cc1cccc(Cl)c1)(C(=O)C=Cc1ccc(Cl)cc1)c1ccccc1 (centres undefined)
102 to 105 °C	CC[C@H](C)CNC(=O)[C@@H](C[C@H](O)[C@H](CC1CCCCC1)NC(=O)[C@H](Cc1cscn1)NC(=O)[C@@H](CC(=O)N1CCOCC1)Cc1cccc2ccccc12)C(C)(C)O

Continued, molecule first:

Compound	melting point
CN1C(C)(C)CC2(CC1(C)C)NC(=O)N(CC(O)COC(=O)CCCCCCCCCCC(=O)OCC(O)CN1C(=O)NC3(CC(C)(C)N(C)C(C)(C)C3)C1=O)C2=O (centres undefined)	53 to 57 °C
CCC(C)C1NC(=O)C(NC(=O)C(CC(C)C)NC)C(C)OC(=O)C(Cc2ccc(OC)cc2)N(C)C(=O)C2CCCN2C(=O)C(CC(C)C)NC(=O)C(C)C(O)C(C(C)C)OC(=O)CC1O (centres undefined) (H-[NMeL]T[X7]LP[NMeY](Me); ester 2-C; configuration not given here)	124 to 127 °C
Brc1cc(Br)c(Oc2nc(Oc3c(Br)cc(Br)cc3Br)nc(Oc3c(Br)cc(Br)cc3Br)n2)c(Br)c1	215 to 218 °C
CCOP(=O)(OCC)Oc1ccc([N+](=O)[O-])cc1	35 to 38 °C
CCCCCCCCCCCCCCCCCCCCCCCCCC(=O)NC(COC1OC(CO)C(O)C(O)C1O)C(O)C(O)CCCCCCCCCCCCCC (centres undefined)	190 °C
CCOC(CN1C(=O)C2=C(c3cc4cc(C(C)(C)C)cc(C(C)(C)C)c4o3)N(CC(OCC)OCC)C(=O)C2=C1c1cc2cc(C(C)(C)C)cc(C(C)(C)C)c2o1)OCC	194 to 196 °C
CCCCN(c1nc(N(CCCC)C2CC(C)(C)N(OCC(C)(C)O)C(C)(C)C2)nc(N(CCCC)C2CC(C)(C)N(OCC(C)(C)O)C(C)(C)C2)n1)C1CC(C)(C)N(OCC(C)(C)O)C(C)(C)C1	172 to 176 °C
O=P(O)(C(F)(F)C(F)(F)C(F)(F)C(F)(F)C(F)(F)C(F)(F)C(F)(C(F)(F)F)C(F)(F)F)C(F)(F)C(F)(F)C(F)(F)C(F)(F)C(F)(F)C(F)(F)C(F)(C(F)(F)F)C(F)(F)F	170 to 172 °C
CC(=O)N1C(C)(C)CC(OC(=O)CCn2c(=O)n(CCC(=O)OC3CC(C)(C)N(C(C)=O)C(C)(C)C3)c(=O)n(CCC(=O)OC3CC(C)(C)N(C(C)=O)C(C)(C)C3)c2=O)CC1(C)C	126 to 128 °C
C=CCN1C(C)(C)CC(N(CCCC)c2nc(N(CCCC)C3CC(C)(C)N(CC=C)C(C)(C)C3)nc(N(CCCC)C3CC(C)(C)N(CC=C)C(C)(C)C3)n2)CC1(C)C	161 to 163 °C
CCCCc1ccc(C(=O)Nc2ccc(OC(=O)c3ccc(CCCC)cc3)c3c2C(=O)c2c(NC(=O)c4ccc(CCCC)cc4)cc(C)c(OC(=O)c4ccc(CCCC)cc4)c2C3=O)cc1	> 250 °C
O=S(=O)(CCCCCOc1ccc(C2=C(c3ccc(OC4CCCCO4)cc3)CCCc3cc(OC4CCCCO4)ccc32)cc1)CCCC(F)(F)C(F)(F)F (centres undefined)	108 to 110 °C
COc1cc(OC)c(/C=C/C(c2ccc(OC)c(NC(=O)C(F)(F)C(F)(F)F)c2)S(=O)(=O)C(/C=C/c2c(OC)cc(OC)cc2OC)c2ccc(OC)c(NC(=O)C(F)(F)C(F)(F)F)c2)c(OC)c1 (centres undefined)	179 to 180 °C
CCc1c(CC[Si](Cl)(Cl)Cl)c(CC[Si](Cl)(Cl)Cl)c(CC[Si](Cl)(Cl)Cl)c(CC[Si](Cl)(Cl)Cl)c1CC[Si](Cl)(Cl)Cl	195 to 198 °C
COc1cc([N+](=O)[O-])cc(C(=O)C2CCCN(C(=O)c3cc([N+](=O)[O-])cc(OC)c3OC)NNN(C(=O)c3cc([N+](=O)[O-])cc(OC)c3OC)CCCC(C(=O)c3cc([N+](=O)[O-])cc(OC)c3OC)CC2)c1OC (centres undefined)	232 to 235 °C
CCCCCCCCCCCCc1c2c(c(CCCCCCCCCCCC)c3c1-c1ccc(Br)cc1C3=C(C#N)C#N)-c1ccc(Br)cc1C2=C(C#N)C#N	136 to 137 °C
CCO[Si](CCCCOc1ccc(S(=O)(=O)c2ccc(OCCCC[Si](OCC)(OCC)OCC)cc2Cc2ccc(C(F)(F)F)cc2)c(Cc2ccc(C(F)(F)F)cc2)c1)(OCC)OCC	124 to 128 °C
CC(C)(C)c1cc(C(C)(C)C)c(OP2OP(Oc3c(C(C)(C)C)cc(C(C)(C)C)cc3C(C)(C)C)OP(Oc3c(C(C)(C)C)cc(C(C)(C)C)cc3C(C)(C)C)O2)c(C(C)(C)C)c1 (centres undefined)	226 to 244 °C
CCCCCCCCCCCCS(=O)(=O)c1c(S(=O)(=O)CCCCCCCCCCCC)c(S(=O)(=O)CCCCCCCCCCCC)c(S(=O)(=O)CCCCCCCCCCCC)c(S(=O)(=O)CCCCCCCCCCCC)c1S(=O)(=O)CCCCCCCCCCCC	60 °C
O=C(OCCCCCCOc1ccc(-c2ccccc2)cc1)c1cc([N+](=O)[O-])ccc1-c1ccc([N+](=O)[O-])cc1C(=O)OCCCCCCOc1ccc(-c2ccccc2)cc1	121 to 122 °C
FC(F)(F)C(F)(F)C(F)(F)C(F)(F)C(F)(F)C(F)(F)C(F)(F)C(F)(F)C(F)(F)C(F)(F)CC[Si](Br)(CCC(F)(F)C(F)(F)C(F)(F)C(F)(F)C(F)(F)C(F)(F)C(F)(F)C(F)(F)C(F)(F)C(F)(F)F)CCC(F)(F)C(F)(F)C(F)(F)C(F)(F)C(F)(F)C(F)(F)C(F)(F)C(F)(F)C(F)(F)C(F)(F)F	80 to 81 °C
CCOC1OC(CO)C(OC2OC(COC(C)=O)C(OC3OC(COC(C)=O)C(OC(C)=O)C(OC(C)=O)C3OC(C)=O)C(OC(C)=O)C2OC(C)=O)C(O)C1NC(C)=O (centres undefined)	260 to 262 °C
CCCCN(c1nc(N(CCCC)C2CC(C)(C)N(OC3CCCCC3)C(C)(C)C2)nc(N(CCCC)C2CC(C)(C)N(OC3CCCCC3)C(C)(C)C2)n1)C1CC(C)(C)N(OC2CCCCC2)C(C)(C)C1	189 to 194 °C
CC(C)(c1ccc(OCC(O)CN2C(=O)NC3(CC(C)(C)N(CCO)C(C)(C)C3)C2=O)cc1)c1ccc(OCC(O)CN2C(=O)NC3(CC(C)(C)N(CCO)C(C)(C)C3)C2=O)cc1 (centres undefined)	233 to 236 °C
Nc1cc(C(F)(F)C(F)(F)OC(F)(F)C(F)(F)OC(F)(F)C(F)(F)OC(F)(F)C(F)(F)C(F)(F)C(F)(F)C(F)(F)OC(F)(F)C(F)(F)c2ccc(O)c(N)c2)ccc1O	92 to 95 °C
C=CCNc1nc(NC(C)(C)CC(C)(C)C)nc(N(CCCCCCN(c2nc(NCC=C)nc(NC(C)(C)CC(C)(C)C)n2)C2CC(C)(C)NC(C)(C)C2)C2CC(C)(C)NC(C)(C)C2)n1	160 to 162 °C
